Measured values from PubChem BioAssay (NCI).
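The compound was tested at five concentrations on cells cultured in 96-well plates, with a 48-hour exposure period. Here, GI50 denotes the concentration required for 50% inhibition of growth. TGI is the concentration that stops growth completely.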

What was measured:
Experiment in all cases: NCI-60 cell line screen, 48 h
HOP-62 NSCLC = tested on: HOP-62 NSCLC
IGROV1 ovarian = tested on: IGROV1 ovarian
MDA-MB-231 breast = tested on: MDA-MB-231 breast
NCI-H226 lung = tested on: NCI-H226 lung
PC-3 prostate = tested on: PC-3 prostate
SF-295 CNS = tested on: SF-295 CNS
SF-539 CNS = tested on: SF-539 CNS
SNB-19 CNS = tested on: SNB-19 CNS
SR leukemia = tested on: SR leukemia
UACC-257 melanoma = tested on: UACC-257 melanoma

SMILES | TGI (HOP-62 NSCLC) | TGI (IGROV1 ovarian) | TGI (MDA-MB-231 breast) | TGI (NCI-H226 lung) | TGI (PC-3 prostate) | TGI (SF-295 CNS) | TGI (SF-539 CNS) | TGI (SNB-19 CNS) | TGI (SR leukemia) | TGI (UACC-257 melanoma) | GI50 (HOP-62 NSCLC) | GI50 (IGROV1 ovarian) | GI50 (MDA-MB-231 breast) | GI50 (NCI-H226 lung) | GI50 (PC-3 prostate) | GI50 (SF-295 CNS) | GI50 (SF-539 CNS) | GI50 (SNB-19 CNS) | GI50 (SR leukemia) | GI50 (UACC-257 melanoma)
O=C1c2cc([N+](=O)[O-])sc2C(=O)c2ccsc21 | 0.486 µM | 0.878 µM | 1.15 µM | 3.09 µM | 1.8 µM | 0.993 µM | 0.938 µM | 3.33 µM | < 0.0235 µM | 0.641 µM | – | – | – | – | – | – | – | – | – | –
OC1c2ccccc2C(O)C2OC12 (stereo not given) | > 100 µM | > 100 µM | > 100 µM | > 100 µM | > 100 µM | > 100 µM | > 100 µM | > 100 µM | > 100 µM | > 100 µM | – | – | – | – | – | – | – | – | – | –
COc1cc(C=O)cc(C=Nc2ccc(S(N)(=O)=O)cc2)c1O | 48.5 µM | > 100 µM | 76.4 µM | 9.58 µM | 21.3 µM | 23.2 µM | 7.94 µM | > 100 µM | 42.1 µM | 38.5 µM | – | – | – | – | – | – | – | – | – | –
O=C(Oc1cccc(Cl)c1)c1cc2cc(CCl)ccc2oc1=O | > 100 µM | > 100 µM | > 100 µM | > 100 µM | > 100 µM | > 100 µM | > 100 µM | > 100 µM | > 100 µM | 31.3 µM | – | – | – | – | – | – | – | – | – | –
CN1C(=O)N(C)C2(CCN(CCCCCCF)CC2)C1=O | > 100 µM | > 100 µM | > 100 µM | > 100 µM | > 100 µM | > 100 µM | > 100 µM | > 100 µM | > 100 µM | > 100 µM | – | – | – | – | – | – | – | – | – | –
CN(C)CCNc1nc2c(no[n+]2[O-])c2ccccc12 | 34.9 µM | 53 µM | 34.3 µM | 54.9 µM | 89.5 µM | 81.9 µM | 27.6 µM | 79 µM | 74.8 µM | 34.1 µM | – | – | – | – | – | – | – | – | – | –
COc1ccc2[nH]c(O)c(/C=c3/cc4c(c(-c5ccc(F)cc5)n3)=Nc3ccccc3-4)c2c1 | 3.69 µM | 48.8 µM | 3.87 µM | > 100 µM | > 100 µM | 31.2 µM | 20.6 µM | > 100 µM | 6.65 µM | 21 µM | 1.88 µM | 19.6 µM | 1.2 µM | 34.2 µM | 8.26 µM | 10.5 µM | 7.62 µM | 3.6 µM | 1.07 µM | 6.77 µM
CC1(C)c2ccccc2C(O)C12CCC(=O)CC2 (stereo not given) | > 100 µM | > 100 µM | > 100 µM | > 100 µM | > 100 µM | > 100 µM | > 100 µM | > 100 µM | > 100 µM | > 100 µM | – | – | – | – | – | – | – | – | – | –
C=CC(Br)(CBr)CCC(Br)C(C)C (stereo not given) | 9.71 µM | 11.1 µM | 10.3 µM | 30.8 µM | 19.5 µM | 8.44 µM | 6.02 µM | 23.4 µM | 3.99 µM | 24 µM | – | – | – | – | – | – | – | – | – | –
COc1ccc(C[C@@H]2OC3(C=CC(=O)C=C3)O[C@H]2Cc2ccc(OC)cc2)cc1 | 3.59 µM | 1.16 µM | 4.15 µM | 0.652 µM | 3.47 µM | 7.89 µM | 2.63 µM | 5.01 µM | 1.84 µM | 3.28 µM | – | – | – | – | – | – | – | – | – | –
COC(=O)[C@H](CCSC)NC(=O)c1ccc(CNC(=O)/C(C)=C/c2ccccc2)cc1 | 52.3 µM | > 100 µM | > 100 µM | > 100 µM | > 100 µM | > 100 µM | 61.2 µM | 58.2 µM | > 100 µM | 52.7 µM | – | – | – | – | – | – | – | – | – | –
O=[N+]([O-])c1ccc2ncccc2c1CCc1c([N+](=O)[O-])ccc2ncccc12 | > 100 µM | > 100 µM | > 100 µM | > 100 µM | > 100 µM | > 100 µM | > 100 µM | > 100 µM | > 100 µM | > 100 µM | – | – | – | – | – | – | – | – | – | –
CCCCCCCCCCCCCCCCP(=O)([O-])OCC[N+](C)(C)C | 31 µM | 7.2 µM | 35.2 µM | 40.9 µM | 8.66 µM | 25.8 µM | 39.8 µM | > 57.4 µM | 29.4 µM | 32.7 µM | – | – | – | – | – | – | – | – | – | –
CCCC1(N)CC(OC)OC(C)C1O (stereo not given) | > 100 µM | > 100 µM | > 100 µM | > 100 µM | > 100 µM | > 100 µM | > 100 µM | > 100 µM | > 100 µM | > 100 µM | – | – | – | – | – | – | – | – | – | –
C=CCC(SC)C1=C(C)C(=O)c2ccccc21 (stereo not given) | > 10 µM | > 10 µM | > 10 µM | > 10 µM | > 10 µM | > 10 µM | > 10 µM | > 10 µM | > 10 µM | > 10 µM | – | – | – | – | – | – | – | – | – | –
C=CC1(c2ccc(OC)cc2)OCCCO1 | > 100 µM | > 100 µM | > 100 µM | > 100 µM | > 100 µM | > 100 µM | > 100 µM | > 100 µM | > 100 µM | > 100 µM | – | – | – | – | – | – | – | – | – | –
COc1cccc(-c2cc(=O)c3cc(Cl)cnc3[nH]2)c1 | 9.84 µM | > 100 µM | > 65.5 µM | 1.57 µM | > 100 µM | 13 µM | 2.56 µM | > 77.2 µM | 20.4 µM | > 100 µM | – | – | – | – | – | – | – | – | – | –
CCOC(=O)CC[C@H](N)C(=O)N[C@H](Cc1ccc(N(CCCl)CCCl)cc1)C(=O)OCC | 13.6 µM | 9.37 µM | 16.2 µM | > 47.7 µM | 17.7 µM | 23 µM | 8.83 µM | 99 µM | > 33.6 µM | > 49.2 µM | – | – | – | – | – | – | – | – | – | –
O=S(=O)(/N=C(\NO)Nc1ccc(Cl)cc1)c1ccc(-c2ccccn2)s1 | > 100 µM | > 100 µM | > 100 µM | > 100 µM | > 100 µM | > 100 µM | > 100 µM | > 100 µM | > 100 µM | > 100 µM | – | – | – | – | – | – | – | – | – | –
Nc1ccc(-c2nc3ccccc3s2)cc1Br | > 68.3 µM | > 100 µM | > 100 µM | > 100 µM | > 100 µM | > 100 µM | > 78.9 µM | > 100 µM | > 100 µM | > 100 µM | – | – | – | – | – | – | – | – | – | –
CC(C)c1cccc(C(C)C)c1OS(=O)(=O)NC(=O)OC(C(F)(F)F)C(F)(F)F | 91.3 µM | > 100 µM | > 100 µM | > 100 µM | > 100 µM | 65.3 µM | > 100 µM | > 100 µM | > 100 µM | > 100 µM | – | – | – | – | – | – | – | – | – | –
C=CCN1CCC2(CC1)NC(=O)c1ccccc1O2 | > 100 µM | > 100 µM | > 100 µM | > 100 µM | > 100 µM | > 100 µM | > 100 µM | > 100 µM | > 100 µM | > 100 µM | – | – | – | – | – | – | – | – | – | –
C=CCC(CNC(=O)OCc1ccccc1)OC(=O)OCc1ccccc1 (stereo not given) | > 100 µM | > 100 µM | > 100 µM | > 100 µM | > 100 µM | > 100 µM | > 100 µM | > 100 µM | 62 µM | > 100 µM | – | – | – | – | – | – | – | – | – | –
CCN(CC)CCC(=O)c1ccc(Oc2ccc(F)cc2)cc1 | 56.6 µM | 36 µM | 31.2 µM | > 100 µM | 71.9 µM | > 100 µM | 31.8 µM | 33.6 µM | > 100 µM | 34 µM | – | – | – | – | – | – | – | – | – | –
